Measured values as given in patent US12678446B2 (PFIZER INC., priority 2020, dated 2026).

Legend:
[1] = cell toxicity CC50; assay type: cell-based; conditions: human; Hep-G2 cells; mean of at least two experiments; read-out: Cell Cytotoxicity CC50
[2] = system: RSV (RSV A2 ECACC, 0709161v); assay: RSV plaque reduction assay; assay type: cell-based, respiratory syncytial virus; conditions: human respiratory syncytial virus, HepG2, read-out: RSV A2 Plaque EC50, RSV A2 in Hep-G2 cells; mean of at least two experiments unless noted (n = 1)
In short: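 Eight-point compound dilutions were premixed with RSV A2 (100 PFU/well) and applied to confluent Hep-G2 cells for 2 h, followed by a 2-day incubation at 37° C. under compound-containing 0.8% CMC overlay. EC50 comes from immunostained plaque counts relative to untreated virus wells, averaged over ≥2 runs.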

COc1cc(-c2nn3c(c2C(=O)N[C@H]2N=C(c4ccccc4)c4cccc(F)c4NC2=O)O[C@H](C)CC3)ccn1 [Example 48, (5R)-2-(2-Methoxypyridin-4-yl)-5-methyl-N-[(3S)-9-fluoro-2-oxo-5-phenyl-1,3-dihydro-1,4-benzodiazepin-3-yl]-6,7-dihydro-5H-pyrazolo[5,1-b][1,3]oxazine-3-carboxamide]
CC50 [1]: > 25000 nM
EC50 [2]: 246 nM

COc1cc(-c2nn3c(c2C(=O)N[C@H]2N=C(c4ccccc4)c4ccccc4NC2=O)O[C@H](C)CC3)ccn1 [Example 49, (5R)-2-(2-Methoxypyridin-4-yl)-5-methyl-N-[(3S)-2-oxo-5-phenyl-1,3-dihydro-1,4-benzodiazepin-3-yl]-6,7-dihydro-5H-pyrazolo[5,1-b][1,3]oxazine-3-carboxamide]
CC50 [1]: > 25000 nM
EC50 [2]: 243 nM

CC(O)Cc1ccc(-c2nn3c(c2C(=O)N[C@H]2N=C(c4ccccc4)c4ccccc4NC2=O)O[C@H](C)CC3)cn1 (stereo partly drawn) [Example 50, (5R)-2-[6-(2-Hydroxypropyl)pyridin-3-yl]-5-methyl-N-[(3S)-2-oxo-5-phenyl-1,3-dihydro-1,4-benzodiazepin-3-yl]-6,7-dihydro-5H-pyrazolo[5,1-b][1,3]oxazine-3-carboxamide]
CC50 [1]: > 25000 nM
EC50 [2]: 429 nM

CCNc1ccc(-c2nn3c(c2C(=O)N[C@H]2N=C(c4ccccc4)c4cccc(F)c4NC2=O)O[C@H](C)CC3)cn1 [Example 52, (5R)-2-[6-(Ethylamino)-3-pyridyl]-N-[(3S)-9-fluoro-2-oxo-5-phenyl-1,3-dihydro-1,4-benzodiazepin-3-yl]-5-methyl-6,7-dihydro-5H-pyrazolo[5,1-b][1,3]oxazine-3-carboxamide]
CC50 [1]: > 25000 nM
EC50 [2]: 28 nM

C[C@@H]1CCn2nc(-c3cc(C4CC4)cnc3F)c(C(=O)N[C@H]3N=C(c4ccccc4)c4cccc(F)c4NC3=O)c2O1 [Example 53, (5R)-2-(5-Cyclopropyl-2-fluoro-3-pyridyl)-N-[(3S)-9-fluoro-2-oxo-5-phenyl-1,3-dihydro-1,4-benzodiazepin-3-yl]-5-methyl-6,7-dihydro-5H-pyrazolo[5,1-b][1,3]oxazine-3-carboxamide]
CC50 [1]: > 25000 nM
EC50 [2]: 92 nM

CCc1ccc(-c2nn3c(c2C(=O)N[C@H]2N=C(c4ccccc4)c4ccccc4NC2=O)O[C@H](C)CC3)c(F)c1 [Example 54]
CC50 [1]: > 25000 nM
EC50 [2]: 15 nM

C[C@@H]1CCn2nc(-c3ccc(N4CCOCC4)nc3)c(C(=O)N[C@H]3N=C(c4ccccc4)c4ccccc4NC3=O)c2O1 [Example 55, (5R)-5-Methyl-2-(6-morpholino-3-pyridyl)-N-[(3S)-2-oxo-5-phenyl-1,3-dihydro-1,4-benzodiazepin-3-yl]-6,7-dihydro-5H-pyrazolo[5,1-b][1,3]oxazine-3-carboxamide]
CC50 [1]: > 25000 nM
EC50 [2]: 246 nM

C[C@@H]1CCn2nc(-c3ccc(N4CCOCC4)nc3)c(C(=O)N[C@H]3N=C(c4ccccc4)c4cccc(F)c4NC3=O)c2O1 [Example 56, (5R)-N-[(3S)-9-fluoro-2-oxo-5-phenyl-1,3-dihydro-1,4-benzodiazepin-3-yl]-5-methyl-2-(6-morpholino-3-pyridyl)-6,7-dihydro-5H-pyrazolo[5,1-b][1,3]oxazine-3-carboxamide]
CC50 [1]: > 25000 nM
EC50 [2]: 123 nM

Cc1ccc(-c2nn3c(c2C(=O)N[C@H]2N=C(c4ccccc4)c4ccccc4NC2=O)O[C@H](C)CC3)c(C)n1 [Example 57, (5R)-2-(2,6-Dimethyl-3-pyridyl)-5-methyl-N-[(3S)-2-oxo-5-phenyl-1,3-dihydro-1,4-benzodiazepin-3-yl]-6,7-dihydro-5H-pyrazolo[5,1-b][1,3]oxazine-3-carboxamide]
CC50 [1]: > 25000 nM
EC50 [2]: 353 nM

Cc1ccc(-c2nn3c(c2C(=O)N[C@H]2N=C(c4ccccc4)c4cccc(F)c4NC2=O)O[C@H](C)CC3)c(C)n1 [Example 58, (5R)-2-(2,6-Dimethyl-3-pyridyl)-N-[(3S)-9-fluoro-2-oxo-5-phenyl-1,3-dihydro-1,4-benzodiazepin-3-yl]-5-methyl-6,7-dihydro-5H-pyrazolo[5,1-b][1,3]oxazine-3-carboxamide]
CC50 [1]: > 25000 nM
EC50 [2]: 188 nM
